Measured values as given in PubChem BioAssay AID1963985 (Molecular Pharmacology Branch, DTP, NCI, 2024).
Values joined by “and” are separate entries in the source; they are usually repeats but may differ in a detail not shown here. Equal entries are not always repeated.

System: 252836-082-R-J2-PDC tumor spheroids, viability
Test: Anticancer human tumor 252836-082-R-J2-PDC patient-derived head and neck squamous cell carcinoma cell line growth inhibition [PI3K]
Conditions: spheroids with HUVEC and MSC; for viability, T/C: stronger effect = lower value
In short: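 We assembled tumor spheroids that included a stromal compartment of HUVEC and MSCs, then exposed them to targeted agents alone and together with PI3K pathway inhibitors. Concentration series descended by half-log from clinically achievable Cmax levels. Viability served as the endpoint.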
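Also: spheroids exposed to agents for seven days before readout.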
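For viability, T/C in this document: percent of vehicle DMSO control viability so 100% = untreated growth.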

SMILES: C=CC(=O)N1CCN(c2nc(=O)n(-c3c(C)ccnc3C(C)C)c3nc(-c4c(O)cccc4F)c(F)cc23)C(C)C1 (stereo not drawn)
- viability, T/C (compound 0.0316 µM): 98% [middle of 4 runs]
- viability, T/C (compound 0.1 µM): 95.6% [middle of 4 runs]
- viability, T/C (compound 10 µM): 99.2% [middle of 4 runs]
- IC50 (curve of compound): > 10 µM

SMILES: CC(Cn1ccc(-c2ccc(C#N)c(Cl)c2)n1)NC(=O)c1cc(C(C)O)[nH]n1 (stereo not drawn) + CC(Nc1ccc2c(c1)OCCn1cc(N3C(=O)OCC3C(F)F)nc1-2)C(N)=O
- IC50 (curve of first compound, second compound 0.00316 µM): > 10 µM
- IC50 (curve of first compound, second compound 0.01 µM): > 10 µM
- IC50 (curve of first compound, second compound 0.0316 µM): > 10 µM
- IC50 (curve of first compound, second compound 0.1 µM): > 10 µM
- IC50 (curve of first compound, second compound 0.316 µM): > 10 µM
- IC50 (curve of first compound, second compound 1 µM): < 0.0316 µM
- viability, T/C (second compound 0.00316 µM, first compound 0.0316 µM): 94.1%
- viability, T/C (second compound 0.00316 µM, first compound 0.1 µM): 88.5%
- viability, T/C (second compound 0.00316 µM, first compound 0.316 µM): 97.6%
- viability, T/C (second compound 0.00316 µM, first compound 1 µM): 94.7%
- viability, T/C (second compound 0.00316 µM, first compound 3.16 µM): 98.7%
- viability, T/C (second compound 0.00316 µM, first compound 10 µM): 90.6%
- viability, T/C (second compound 0.01 µM, first compound 0.0316 µM): 102%
- viability, T/C (second compound 0.01 µM, first compound 0.1 µM): 87.6%
- viability, T/C (second compound 0.01 µM, first compound 0.316 µM): 87.6%
- viability, T/C (second compound 0.01 µM, first compound 1 µM): 106%
- viability, T/C (second compound 0.01 µM, first compound 3.16 µM): 90.7%
- viability, T/C (second compound 0.01 µM, first compound 10 µM): 88.8%
- viability, T/C (second compound 0.0316 µM, first compound 0.0316 µM): 78.4%
- viability, T/C (second compound 0.0316 µM, first compound 0.1 µM): 82.8%
- viability, T/C (second compound 0.0316 µM, first compound 0.316 µM): 86.1%
- viability, T/C (second compound 0.0316 µM, first compound 1 µM): 74.8%
- viability, T/C (second compound 0.0316 µM, first compound 3.16 µM): 78.3%
- viability, T/C (second compound 0.0316 µM, first compound 10 µM): 87.9%
- viability, T/C (second compound 0.1 µM, first compound 0.0316 µM): 62.1%
- viability, T/C (second compound 0.1 µM, first compound 0.1 µM): 63.4%
- viability, T/C (second compound 0.1 µM, first compound 0.316 µM): 68.1%
- viability, T/C (second compound 0.1 µM, first compound 1 µM): 66.1%
- viability, T/C (second compound 0.1 µM, first compound 3.16 µM): 66.1%
- viability, T/C (second compound 0.1 µM, first compound 10 µM): 65.8%
- viability, T/C (second compound 0.316 µM, first compound 0.0316 µM): 57.7%
- viability, T/C (second compound 0.316 µM, first compound 0.1 µM): 57.8%
- viability, T/C (second compound 0.316 µM, first compound 0.316 µM): 56.1%
- viability, T/C (second compound 0.316 µM, first compound 1 µM): 56.8%
- viability, T/C (second compound 0.316 µM, first compound 3.16 µM): 56.8%
- viability, T/C (second compound 0.316 µM, first compound 10 µM): 46.5%
- viability, T/C (second compound 1 µM, first compound 0.0316 µM): 50.2%
- viability, T/C (second compound 1 µM, first compound 0.1 µM): 47.3%
- viability, T/C (second compound 1 µM, first compound 0.316 µM): 46.8%
- viability, T/C (second compound 1 µM, first compound 1 µM): 45.3%
- viability, T/C (second compound 1 µM, first compound 3.16 µM): 49.9%
- viability, T/C (second compound 1 µM, first compound 10 µM): 47.3%

SMILES: CC(C)NCC(C(=O)N1CCN(c2ncnc3c2C(C)CC3O)CC1)c1ccc(Cl)cc1 (stereo not drawn)
- viability, T/C (compound 0.0316 µM): 84.2% [middle of 4 runs]
- viability, T/C (compound 0.1 µM): 96.8% [middle of 4 runs]
- viability, T/C (compound 0.316 µM): 87.8% (2×) and 61.1% and 70.6%
- viability, T/C (compound 1 µM): 45.1% [middle of 4 runs]
- viability, T/C (compound 3.16 µM): 31.7% [middle of 4 runs]
- viability, T/C (compound 10 µM): 19.7% [middle of 4 runs]
- IC50 (curve of compound): 850 nM [middle of 4 runs]
